Values joined by “and” are separate entries in the source; they are usually repeats but may differ in a detail not shown here. Equal values may be shown once. Inconclusive results and toxic doses are left out. Rule for the calls: active = survival T/C of 150% or more; inactive = T/C below 125% in these data.
Test system: CD2F1 mice, L1210 leukemia ip, survival T/C
Experiment: NCI In Vivo Anticancer Drug Screen. Data for tumor model L1210 Leukemia (intraperitoneal) in CD2F1 (CDF1) mice
Conditions: higher = longer survival
Outline: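 In this screen, transplantable tumors were grown in mice given either the compound or its vehicle. Results were expressed as the treated measurement relative to the control measurement.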

[1] = endpoint: mean survival time, dose: 100.0 mg/kg/injection, schedule: Q04DX003 (ip), vehicle: saline with Tween-80
[2] = endpoint: mean survival time, dose: 400.0 mg/kg/injection, schedule: Q04DX003 (ip), vehicle: saline with Tween-80

Measured: T/C

NC(=S)N/N=C/c1nccc2ccccc12
inactive: endpoint: mean survival time, dose: 6.25 mg/kg/injection, schedule: Q01DX010 (oral), vehicle: saline 97 % of control | endpoint: mean survival time, dose: 15.0 mg/kg/injection, schedule: Q01DX006 (iv), vehicle: saline 100 % of control | endpoint: mean survival time, dose: 25.0 mg/kg/injection, schedule: Q01DX009 (sc), vehicle: saline 97 % of control | endpoint: mean survival time, dose: 30.0 mg/kg/injection, schedule: Q01DX006 (iv), vehicle: saline 100 % of control | endpoint: mean survival time, dose: 50.0 mg/kg/injection, schedule: Q01DX001 (sc), vehicle: saline 98 % of control | endpoint: mean survival time, dose: 50.0 mg/kg/injection, schedule: Q01DX009 (sc), vehicle: saline 103 % of control | endpoint: mean survival time, dose: 75.0 mg/kg/injection, schedule: Q01DX009 (ip), vehicle: saline with Tween-80 110 % of control | endpoint: mean survival time, dose: 168.0 mg/kg/injection, schedule: Q01DX Z (ip), vehicle: saline 86 % of control | endpoint: mean survival time, dose: 200.0 mg/kg/injection, schedule: Q01DX001 (sc), vehicle: saline 100 % of control | endpoint: mean survival time, dose: 360.0 mg/kg/injection, schedule: Q01DX001 (ip), vehicle: saline 110 % of control

Cc1ccc(C)c(OC(=O)Nc2cccc3ccccc23)c1
inactive: endpoint: mean survival time, dose: 100.0 mg/kg/injection, schedule: Q04DX002 (ip), vehicle: saline with Tween-80 91 % of control | endpoint: mean survival time, dose: 200.0 mg/kg/injection, schedule: Q04DX002 (ip), vehicle: saline with Tween-80 91 % of control | endpoint: mean survival time, dose: 400.0 mg/kg/injection, schedule: Q04DX002 (ip), vehicle: saline with Tween-80 91 % of control

CC(=O)N(Cc1ccccn1)N=O
inactive: endpoint: mean survival time, dose: 75.0 mg/kg/injection, schedule: Q01DX001 (ip), vehicle: water 112 % of control | endpoint: mean survival time, dose: 150.0 mg/kg/injection, schedule: Q01DX001 (ip), vehicle: water 122 % of control

Cc1ccc(C2NC(=S)N3C(c4ccc(C)cc4)NC(=S)N23)cc1 (centres undefined)
inactive: endpoint: median survival time, dose: 25.0 mg/kg/injection, schedule: Q01DX009 (ip), vehicle: Klucel (hydroxypropylcellulose) (HPC) 105 % of control | endpoint: median survival time, dose: 50.0 mg/kg/injection, schedule: Q01DX009 (ip), vehicle: Klucel (hydroxypropylcellulose) (HPC) 104 % of control | endpoint: median survival time, dose: 100.0 mg/kg/injection, schedule: Q01DX009 (ip), vehicle: Klucel (hydroxypropylcellulose) (HPC) 106 % of control | endpoint: median survival time, dose: 200.0 mg/kg/injection, schedule: Q01DX009 (ip), vehicle: Klucel (hydroxypropylcellulose) (HPC) 104 % of control | endpoint: median survival time, dose: 400.0 mg/kg/injection, schedule: Q01DX009 (ip), vehicle: Klucel (hydroxypropylcellulose) (HPC) 101 % of control | endpoint: median survival time, dose: 800.0 mg/kg/injection, schedule: Q01DX009 (ip), vehicle: Klucel (hydroxypropylcellulose) (HPC) 106 % of control

O=C1C(Cl)=C(NCC2CCC(CO)CC2)C(=O)c2ccccc21 (centres undefined)
inactive: endpoint: mean survival time, dose: 6.25 mg/kg/injection, schedule: Q04DX003 (ip), vehicle: saline with Tween-80 98 % of control | endpoint: mean survival time, dose: 12.5 mg/kg/injection, schedule: Q04DX003 (ip), vehicle: saline with Tween-80 97 % of control | endpoint: mean survival time, dose: 25.0 mg/kg/injection, schedule: Q04DX003 (ip), vehicle: saline with Tween-80 95 % of control and 98 % of control

CC1SC(C)SC(C)S1 (centres undefined)
inactive: endpoint: mean survival time, dose: 75.0 mg/kg/injection, schedule: Q01DX001 (ip), vehicle: saline with Tween-80 98 % of control | endpoint: mean survival time, dose: 150.0 mg/kg/injection, schedule: Q01DX001 (ip), vehicle: saline with Tween-80 98 % of control | endpoint: mean survival time, dose: 300.0 mg/kg/injection, schedule: Q01DX001 (ip), vehicle: saline with Tween-80 102 % of control

O=C(CCCCCNC(=O)OCc1ccccc1)Oc1ccc([N+](=O)[O-])cc1
inactive: [1] 101 % of control | endpoint: mean survival time, dose: 200.0 mg/kg/injection, schedule: Q04DX003 (ip), vehicle: saline with Tween-80 96 % of control | [2] 94 % of control

O=[N+]([O-])c1ccccc1-c1ccc(Cl)cc1
inactive: endpoint: mean survival time, dose: 100.0 mg/kg/injection, schedule: Q01DX001 (ip), vehicle: saline with Tween-80 88 % of control | endpoint: mean survival time, dose: 200.0 mg/kg/injection, schedule: Q01DX001 (ip), vehicle: saline with Tween-80 91 % of control | endpoint: mean survival time, dose: 400.0 mg/kg/injection, schedule: Q01DX001 (ip), vehicle: saline with Tween-80 92 % of control

CCOC(=O)N1CCc2cc(OC)c(OC)cc2C1=C(c1ccccc1)c1ccccc1
inactive: endpoint: mean survival time, dose: 100.0 mg/kg/injection, schedule: Q01DX009 (ip), vehicle: saline with Tween-80 91 % of control | [1] 86 % of control | endpoint: mean survival time, dose: 200.0 mg/kg/injection, schedule: Q01DX009 (ip), vehicle: saline with Tween-80 95 % of control | endpoint: mean survival time, dose: 400.0 mg/kg/injection, schedule: Q01DX009 (ip), vehicle: saline with Tween-80 88 % of control | [2] 86 % of control

N#CC(C#N)=CN1CCCC1
inactive: endpoint: mean survival time, dose: 5.0 mg/kg/injection, schedule: Q01DX001 (ip), vehicle: saline with Tween-80 100 % of control | endpoint: mean survival time, dose: 10.0 mg/kg/injection, schedule: Q01DX001 (ip), vehicle: saline with Tween-80 102 % of control | endpoint: mean survival time, dose: 20.0 mg/kg/injection, schedule: Q01DX001 (ip), vehicle: saline with Tween-80 93 % of control

CN(C)CCN1C(=O)c2cccc3cc([N+](=O)[O-])cc(c23)C1=O
inactive: endpoint: mean survival time, dose: 0.75 mg/kg/injection, schedule: Q01DX009 (ip), vehicle: saline with Tween-80 100 % of control and 106 % of control | endpoint: mean survival time, dose: 1.5 mg/kg/injection, schedule: Q01DX009 (ip), vehicle: saline with Tween-80 115 % of control and 107 % of control | endpoint: mean survival time, dose: 1.5 mg/kg/injection, schedule: Q01DX009 (ip), vehicle: saline 102 % of control | endpoint: mean survival time, dose: 3.0 mg/kg/injection, schedule: Q01DX009 (ip), vehicle: saline with Tween-80 113 % of control | endpoint: mean survival time, dose: 3.0 mg/kg/injection, schedule: Q01DX009 (ip), vehicle: saline 107 % of control | endpoint: mean survival time, dose: 6.0 mg/kg/injection, schedule: Q01DX009 (ip), vehicle: saline 109 % of control | endpoint: mean survival time, dose: 12.0 mg/kg/injection, schedule: Q01DX009 (ip), vehicle: saline with Tween-80 120 % of control | endpoint: mean survival time, dose: 12.0 mg/kg/injection, schedule: Q01DX009 (ip), vehicle: saline 117 % of control | endpoint: median survival time, dose: 0.37 mg/kg/injection, schedule: Q01DX009 (ip), vehicle: saline with Tween-80 100 % of control | endpoint: median survival time, dose: 0.75 mg/kg/injection, schedule: Q01DX009 (ip), vehicle: saline with Tween-80 95 % of control and 105 % of control | endpoint: median survival time, dose: 1.5 mg/kg/injection, schedule: Q01DX009 (ip), vehicle: saline with Tween-80 116 % of control and 98 % of control | endpoint: median survival time, dose: 3.0 mg/kg/injection, schedule: Q01DX009 (ip), vehicle: saline with Tween-80 104 % of control and 110 % of control | endpoint: median survival time, dose: 6.0 mg/kg/injection, schedule: Q01DX009 (ip), vehicle: saline with Tween-80 122 % of control | endpoint: median survival time, dose: 12.0 mg/kg/injection, schedule: Q01DX009 (ip), vehicle: saline with Tween-80 122 % of control

[C-]#[O+].[Cl][Sn]([Cl])[Cl].[Cl][Sn]([Cl])[Cl].[Pt].c1cnc2c(c1)ccc1cccnc12
inactive: endpoint: median survival time, dose: 3.12 mg/kg/injection, schedule: Q04DX003 (ip), vehicle: saline with Tween-80 113 % of control | endpoint: median survival time, dose: 6.25 mg/kg/injection, schedule: Q04DX003 (ip), vehicle: saline with Tween-80 109 % of control | endpoint: median survival time, dose: 12.5 mg/kg/injection, schedule: Q04DX003 (ip), vehicle: saline with Tween-80 109 % of control | endpoint: median survival time, dose: 100.0 mg/kg/injection, schedule: Q04DX003 (ip), vehicle: saline with Tween-80 106 % of control

Cc1c(O)/c(=C\O)c2nc3c(=O)ccc(C(=O)NCCN(C)C)c3[nH]c2c1=O
inactive: endpoint: median survival time, dose: 12.5 mg/kg/injection, schedule: Q01DX005 (ip), vehicle: water 103 % of control and 110 % of control | endpoint: median survival time, dose: 18.0 mg/kg/injection, schedule: Q01DX005 (ip), vehicle: water 115 % of control | endpoint: median survival time, dose: 25.0 mg/kg/injection, schedule: Q01DX005 (ip), vehicle: water 114 % of control and 105 % of control

CCCCCCCC(=O)N1C=CN(C(=O)CCCCCCC)C1
inactive: endpoint: mean survival time, dose: 75.0 mg/kg/injection, schedule: Q04DX003 (ip), vehicle: saline 104 % of control | endpoint: mean survival time, dose: 150.0 mg/kg/injection, schedule: Q04DX003 (ip), vehicle: saline 98 % of control | endpoint: mean survival time, dose: 300.0 mg/kg/injection, schedule: Q04DX003 (ip), vehicle: saline 98 % of control

NC(=O)CC(NC(c1ccccc1)(c1ccccc1)c1ccccc1)C(=O)ON1C(=O)CCC1=O (centres undefined)
inactive: endpoint: mean survival time, dose: 100.0 mg/kg/injection, schedule: Q01DX001 (ip), vehicle: saline sonified 96 % of control | endpoint: mean survival time, dose: 200.0 mg/kg/injection, schedule: Q01DX001 (ip), vehicle: saline sonified 98 % of control | endpoint: mean survival time, dose: 400.0 mg/kg/injection, schedule: Q01DX001 (ip), vehicle: saline sonified 105 % of control

CCOC(=O)C1(C(=O)OCC)C(C)CC(O)N1C(=O)c1ccccc1[N+](=O)[O-] (centres undefined)
inactive: endpoint: mean survival time, dose: 100.0 mg/kg/injection, schedule: Q01DX001 (ip), vehicle: Klucel (hydroxypropylcellulose) (HPC) 100 % of control | endpoint: mean survival time, dose: 200.0 mg/kg/injection, schedule: Q01DX001 (ip), vehicle: Klucel (hydroxypropylcellulose) (HPC) 96 % of control | endpoint: mean survival time, dose: 400.0 mg/kg/injection, schedule: Q01DX001 (ip), vehicle: Klucel (hydroxypropylcellulose) (HPC) 104 % of control

Nc1nc(N)c(CCCOc2ccc(C(=O)O)cc2)c(N)n1
inactive: endpoint: mean survival time, dose: 50.0 mg/kg/injection, schedule: Q01DX009 (ip), vehicle: Klucel (hydroxypropylcellulose) (HPC) 94 % of control | endpoint: mean survival time, dose: 100.0 mg/kg/injection, schedule: Q01DX009 (ip), vehicle: Klucel (hydroxypropylcellulose) (HPC) 101 % of control | endpoint: mean survival time, dose: 200.0 mg/kg/injection, schedule: Q01DX009 (ip), vehicle: Klucel (hydroxypropylcellulose) (HPC) 94 % of control

Source: PubChem BioAssay AID256 (DTP/NCI, 2004)
